The values below come from patent publication US7939111B2, “Lingonberry extract, methods of preparing, and uses thereof” (Beijing Gingko-Group Biological Technology Co., Ltd., priority 2007, dated 2011).

In brackets after ≈: the same amount, converted by molar mass.

Assay [1] can be described thus: hydroxy radical scavenging, orthophenanthroline Fe2+ oxidation method. In kind it is biochemical. The protocol:
The first extract of lingonberry from Example 7, containing 5.2 wt % of anthocyanin, 22.3 wt % of proanthocyanin, and 0.5 wt % of resveratrol, was dissolved in double-distilled water and diluted into solutions in serial concentrations of 0.5, 0.25, 0.125, 0.0625, 0.03125, 0.015625, and 0.0078125 mg/ml. Ascorbic acid was likewise diluted to serial concentrations of 2, 1, 0.5, 0.25, 0.125, and 0.0625 mg/ml. The anti-oxidation effect of lingonberry extracts was confirmed by determining the hydroxyl radical (.OH) and the scavenging effect of the test drug on the hydroxy radical using the orthophenanthroline Fe^2+ oxidation method.
The total reaction volume was 4.7 ml, and thus the final concentrations of ascorbic acid solution were 0.851, 0.426, 0.213, and 0.106 mg/ml, while the final concentrations of lingonberry extract were 0.106, 0.053, 0.027, 0.013 mg/ml. Measurements were obtained for five samples in each group, and the scavenging rates of .OH were calculated and averaged. In order to verify the reliability of this method, ascorbic acid, a known .OH scavenging agent was used as a positive control when evaluating the scavenging effect of the lingonberry extract on hydroxy radicals during the experiment.
In the reaction system of these experiments, the aqueous solution of lingonberry extract could bind with hydroxy radicals generated in the Fenton reaction, thus reducing oxidation of Fe^2+ by hydroxy radicals. Its effect on scavenging hydroxy radicals was evaluated by determining the absorbance value of the reaction system.

Assay [2] has as its system yeast. The conditions noted are these: by activating Sir2 enzymatic expression; cited from earlier work.

Regarding `O=C1O[C@H]([C@@H](O)CO)C(O)=C1O` [ascorbic acid], the “•OH scavenging rate (d)” value in assay [1] (final concentration 0.106 mg/ml) stood at 24.44 ± 2.32; in assay [1] (final concentration 0.213 mg/ml) it was 25.55 ± 2.10; in assay [1] (final concentration 0.426 mg/ml) it was 40.49 ± 1.33; in assay [1] (final concentration 0.851 mg/ml) it was 91.92 ± 0.77. Moreover, the “IC50, hydroxy radical scavenging” value in assay [1] (orthophenanthroline Fe2+ oxidation method) amounted to 307.8 µg/mL (≈ 1750 µM).

As to `Oc1ccc(C=Cc2cc(O)cc(O)c2)cc1` [resveratrol], the “increase of life span” value in assay [2] is recorded as “about 70%”.
